Earlier results on 3 molecules are cited in patent publication US20180169172A1, “COMPOUND AND METHOD FOR REDUCING APPETITE, FATIGUE AND PAIN” (priority 2018, published 2018).

A word on the pKa: it is the negative logarithm of the acid dissociation constant. In general, logP refers to the decadic logarithm of the partition coefficient of the neutral form, usually between octanol and water.

Series [1] concerns mice. Particulars: even upon oral administration.
In series [2] the target is μ-subtype opioid receptor (MOR) (Homo sapiens, UniProt P35372).
Sequence of μ-subtype opioid receptor (MOR) (P35372 whole entry): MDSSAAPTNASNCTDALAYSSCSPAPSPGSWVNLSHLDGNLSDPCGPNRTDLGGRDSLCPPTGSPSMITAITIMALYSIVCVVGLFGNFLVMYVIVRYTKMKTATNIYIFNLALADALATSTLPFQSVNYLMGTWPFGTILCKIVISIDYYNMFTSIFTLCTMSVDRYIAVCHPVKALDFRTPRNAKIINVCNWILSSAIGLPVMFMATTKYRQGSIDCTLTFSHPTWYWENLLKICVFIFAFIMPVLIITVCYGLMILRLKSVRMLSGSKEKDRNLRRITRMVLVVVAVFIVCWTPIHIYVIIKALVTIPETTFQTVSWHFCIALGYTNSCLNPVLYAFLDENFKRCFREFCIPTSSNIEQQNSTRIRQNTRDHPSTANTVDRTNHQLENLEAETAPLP
Series [3] relates to gastrointestinal transit. The following applies: subcutaneous, mice.
Series [4] relates to pain. Particulars: by mouth, immediate-release formulation.
For series [5] the following is noted: microplate reader determination.
Assay in series [6]: not given
This is another data set of the same source.

Assay in series [7]: not given
The source holds these as a separate data set.

Assay in series [8]: not given
The source holds these as a separate data set.

For series [9], the system named is rodents. Particulars: dose levels of 800-900 mg/kg in rodents.
Series [10] deals with rats. The following applies: 200 mg/kg in rats; mitragynine given orally.
Series [11] relates to Kratom users. Particulars: even after chronic and high dosage consumption.
The subject of series [12] is animal. Particulars: animal studies, versus codeine.
Series [13] concerns skeletal muscle. Particulars: rat, in vivo.
In series [14] the test system is compound nerve action potential. Particulars: 2 mg/mL.
Series [15] has as its system gastric acid secretion.
[16] abbreviates: nine subjects, oral Kratom tea, loading dose.

Where two headings read alike, the source gives them in different places. A value given as a limit tells only on which side of the number the result lay.

For the molecule `CC[C@@H]1CN2CC[C@@]3(O)C(=Nc4cccc(OC)c43)[C@@H]2C[C@@H]1/C(=C\OC)C(=O)OC` [7-hydroxymitragynine, (αE,2S,3S,7aS,12bS)-3-ethyl-1,2,3,4,6,7,7a,12b-octahydro-7a-hydroxy-8-methoxy-α-(methoxymethylene)-indolo [2,3-a]quinolizine-2-acetic acid methyl ester], the “analgesic potency relative to morphine” value in series [1] was “several times more potent analgesic than morphine”. Besides, in series [2], the “agonism at μ-subtype opioid receptor” value was “selective and full agonists”. Further, in [3], the gastrointestinal transit entry is recorded as “caused an inhibition”.

As to `COc1cccc(C2(O)CCCCC2CN(C)C)c1` (stereo not shown) [Tramadol, tramadol], the “onset of pain relief” value in series [4] is “within an hour”.

Turning to `CC[C@@H]1CN2CCc3c([nH]c4cccc(OC)c34)[C@@H]2C[C@@H]1/C(=C\OC)C(=O)OC` [mitragynine, (αE,2S,3S,12bS)-3-ethyl-1,2,3,4,6,7,12,12b-octahydro-8-methoxy-α-(methoxymethylene)-indolo[2,3-a]quinolizine-2-acetic acid methyl ester], the logP is listed as 1.73. Moreover, the pKa in [5] is listed as 8.08±0.04. The stability in acid entry in series [6] (acidic environments) is recorded as “acid labile”. The water solubility in series [6] (water) was less than 100 µg/mL. In addition, the solubility entry in series [6] (water and basic media) was “poor solubility in water and basic media”. Besides, the “total drug release in dissolution” value in series [7] (simulated gastric fluid (SGF)) is “higher”. The “total drug release in dissolution” value in series [7] (simulated intestinal fluid (SIF)) was “prolonged and incomplete”. In series [8] (24-hour period), the “urine excretion of unchanged form” value is 0.14%. Also, in series [8] (setting [16]), the “apparent volume of distribution” value was 38.04 ± 24.32 L/kg, the terminal half-life is 23.24 ± 16.07 h and the “time to reach the maximum plasma concentration” value was 0.83 ± 0.35 h. Moreover, in series [9], the toxicity result is “no toxicity”. In addition, the lethality result in series [10] was “lethal effects”. Besides, the “mortalities following consumption alone” value in [11] is reported as “no reports of mortalities”. The “agonism at μ-subtype opioid receptor” value in series [2] is “selective and full agonists”. In series [12], the antinociceptive effect entry is “comparable to those of codeine” and the cough-suppressant effect entry is “comparable to those of codeine”. For the same molecule, the skeletal muscle relaxation result in [13] is recorded as “produced skeletal muscle relaxation”. Further, the “nerve conduction, amplitude and duration of compound nerve action potential” value in [14] is recorded as “blocked”. Further, the “2-deoxy-D-glucose-stimulated gastric acid secretion” value in series [15] (administration into fourth ventricle of anesthetized rats, reversed by naloxone) is “inhibition”. For the same molecule, the “basal gastric acid secretion” value in series [15] (administration into the lateral ventricle) is on record as “did not alter”.
